The text below walks through data of patent US11271237B2, “Organic redox molecules for flow batteries” (UCHICAGO ARGONNE, LLC, priority 2019, dated 2022).

Molecules are shown by their SMILES. Converted amounts (≈) assume the structure as drawn.

Series [1] in a line: Cyclic voltammetry in non-aqueous carbonate electrolyte. Format: physicochemical. The note with it: 10 mM in 1.5 M LiPF6 in EC/EMC 3:7 (v/v); glassy carbon working electrode, lithium metal counter and reference; iR-correction. The method, then: FIG. 3 provides cyclic voltammograms of 10 mM 4-(1,4-dioxabutyl)-2,2,6,6-tetramethylpiperidine-1-oxyl (TEMPO-EG1) in a non-aqueous electrolyte (1.5 M LiPF6 in a mixture of ethylene carbonate (EC) and ethyl methyl carbonate (EMC), 3:7 (v/v), respectively) at various scan rates given in mV/s. In FIG. 3, the cyclic voltammograms were measured at various rates with iR-correction applied. A glassy carbon electrode was used as the working electrode, while lithium metal strips were used as the counter and reference electrodes.
FIG. 4 provides cyclic voltammograms of 10 mM 4-(1,4,7-trioxaoctyl)-2,2,6,6-tetramethylpiperidine-1-oxyl (TEMPO-EG2) in a non-aqueous electrolyte (1.5 M LiPF6 in a mixture of ethylene carbonate (EC) and ethyl methyl carbonate (EMC), 3:7 (v/v), respectively) at various scan rates given in mV/s. In FIG. 4, the cyclic voltammograms were measured at various rates with iR-correction applied. A glassy carbon electrode was used as the working electrode, while lithium metal strips were used as the counter and reference electrodes.
FIG. 5 provides cyclic voltammograms of 10 mM 4-(1,4,7,10-tetraoxaundecyl)-2,2,6,6-tetramethylpiperidine-1-oxyl (TEMPO-EG3) in a non-aqueous electrolyte (1.5 M LiPF6 in a mixture of ethylene carbonate (EC) and ethyl methyl carbonate (EMC), 3:7 (v/v), respectively) at various scan rates given in mV/s. In FIG. 5, the cyclic voltammograms were measured at various rates with iR-correction applied. A glassy carbon electrode was used as the working electrode, while lithium metal strips were used as the counter and reference electrodes.

Series [2] is described as follows: Cyclic voltammetry in aqueous electrolytes. The class given is physicochemical. Conditions: for redox potential: Pt disk working electrode, Pt coil counter. The method, then: Cyclic voltammograms of 10 mM TEMPO-EG3 in an aqueous electrolyte (1 M aqueous sulfuric acid) were measured at various scan rates given in mV/s. A Pt disk was used as the working electrode, while the counter electrode was a Pt coil and the reference electrode was Ag/AgCl.
Cyclic voltammograms of 10 mM TEMPO-EG3 in an aqueous electrolyte (1M aqueous sodium chloride) were measured at various scan rates given in mV/s. A Pt disk was used as the working electrode, while the counter electrode was a Pt coil and the reference electrode was Ag/AgCl.

The nature of series [3]: Viscosity measurement with RHEOSENSE microfluidic MEMS viscometer. Format: physicochemical. The note with it: neat liquid, 23.4° C., shear rates 500-5000 s^−1 (EG1, EG2) or 100-4000 s^−1 (EG3). The method, then: The viscosities of liquid TEMPO derivatives were determined at 23.4° C. using a RHEOSENSE microfluidic and micro-electro-mechanical-systems (MEMS) viscometer. The RHEOSENSE viscometer is based on the viscometer-rheometer-on-a-chip (VROC) technology. For TEMPO-EG1 and EG2, shear rates were swept from 500 s^−1 to 5000 s^−1, while the viscosity of TEMPO-EG3 was measured from 100 s^−1 to 4000 s^−1. […] Longer glycol ether chains lead to increases in viscosity, but the impact differs drastically.

The conditions of series [4]: in a carbonate-based electrolyte; cited from earlier work.

With `COCCOCCOCCOC1CC(C)(C)N([O])C(C)(C)C1` [TEMPO-EG3, 4-(3,6,9-trioxadecyloxy)-2,2,6,6-tetramethylpiperidine-1-oxyl], the redox potential is 3.53 V vs. Li/Li^+ in series [1], “about 0.59 V vs. Ag/AgCl” in series [2] (10 mM in 1M aqueous sodium chloride (neutral electrolyte)) and “about 0.55 V vs. Ag/AgCl” in series [2] (10 mM in 1 M aqueous sulfuric acid (acidic electrolyte)). The electrochemical reversibility entry in series [2] (cyclic voltammetry in common aqueous electrolytes) is given as “excellent electrochemical reversibility”. In addition, the viscosity (as a rule, the resistance of a fluid to flow) in series [3] was 21.30 mPa·s.
Regarding `COCCOc1cc(C(C)(C)C)c(OC)cc1C(C)(C)C` [DBMMEB, 1,4-di-tert-butyl-2-methoxy-5-(2-rnethoxyethoxy)benzene], the solubility (usually the concentration that dissolves in the medium under given conditions) in series [4] was 600 mM (≈ 177 mg/mL).
In turn, `COCCOC1CC(C)(C)N([O])C(C)(C)C1` [TEMPO-EG1, 4-(2-methoxyethoxy)-2,2,6,6-tetramethylpiperidine-1-oxyl] returned a redox potential in series [1] of 3.53 V vs. Li/Li^+. In series [3], this molecule came in with a viscosity of 10.23 mPa·s.
The corresponding values for `COCCOCCOC1CC(C)(C)N([O])C(C)(C)C1` [TEMPO-EG2, 4-(3,6-dioxaheptyloxy)-2,2,6,6-tetramethylpiperidine-1-oxyl] are 3.53 V vs. Li/Li^+ and 10.88 mPa·s.
